Values quoted from earlier work in patent publication US4801604A (priority 1987, dated 1989).

Settings: phenytoin and structurally related drugs

SMILES: O=C1NC(=O)C(c2ccccc2)(c2ccccc2)N1 [phenytoin]
- Side effects (in words): hyperplasia of the gums, cerebellar degeneration, gastric distress and serious skin rashes
